Experimental data from patent publication US7314726B2, “Beta secretase exosite binding peptides and methods for identifying beta secretase modulators” (Bristol-Myers Squibb Company, priority 2002, dated 2008).

What was measured:
BACE [1] = molecular target: T1, BACE (Homo sapiens, UniProt P56817); test: Isothermal titration calorimetry (ITC) of BACE and peptides; assay type: binding; design: The cDNA for the catalytic domain of human BACE (residues 1-460) was PCR-amplified; human IgG1 heavy chain (C, cleaved yes); thrombin cleavage site (C); made in house; host or cells: CHO DG44 cells (stably transfected, secreted)
Experimental: Isothermal titration calorimetry was performed to determine quantitatively the binding affinities of BMS-561877 and BMS-561871 for β-secretase. Recombinant human BACE was expressed as a fusion protein with human IgG1, in Chinese hamster ovary (CHO) cells (Vassar et al., (1999) Science 286:735-741 and Haniu et al., (2000) J. Biol. Chem. 275:21099-21106).
This construct, referred to as BACE-T-IgG, also contained a protease cleavage site between BACE and IgG1, sensitive to human α-thrombin. The cDNA for the catalytic domain of human BACE (residues 1-460) was PCR-amplified and subcloned into the mammalian expression vector pTV1.6, upstream of a thrombin cleavage site linked to cDNA encoding human IgG1 heavy chain. The vector construct, pTV1.6-BACE-T-IgG, was used to produce stably transfected DHFR-deficient CHO DG44 cells, which were then scaled up using methotrexate for selection.
The clarified growth media harvested from CHO DG44 cells which contained the fusion protein was loaded onto a rProtein A SEPHAROSE™ column (5×20 cm, Amersham Pharmacia Biotech) using a peristaltic pump at 4° C., at 4 mL/min. The column was washed with Dulbecco's PBS, pH 7.1, 4 mL/min, until baseline absorbance at 280 nm was observed. BACE-T-IgG was eluted from the resin with 0.10 M citrate, pH 3.0, into tubes containing 0.5 volumes of 4 M Tris, pH 8. Fractions containing the fusion protein were dialyzed extensively using 12,000-14,000 […] MWCO membrane (UltraPURE, GIBCO BRL) against PBS, pH 7.1, at 4° C. The protein was sterile filtered (0.22 μm) and stored at 4° C.
To generate BACE for binding experiments, the fusion protein BACE-T-IgG was treated with human α-thrombin (Enzyme Research Labs, South Bend, Ind.) at a ratio of 1:500 (mass:mass) in Dulbecco's PBS, pH 7.1, at 37° C. for 2 hr. Human α-thrombin was removed by passing the sample over Benzamidine SEPHAROSE™ 6B column (Amersham Pharmacia Biotech). The cleaved IgG1 was captured by passing the solution over a rProtein A SEPHAROSE™ (Amersham Pharmacia Biotech) column, whereas the BACE passed through this column. The protein sample was further purified by concentrating to 10-15 mg/mL using a centrifugation concentration unit (Millipore Ultrafree 10 kDa MWCO, 15 mL unit) and loading onto a SUPERDEX™ 200 PC 3.2/30 gel-filtration column (Amersham Pharmacia Biotech). The column was run at 3 mL/min with Dulbecco's PBS, pH 7.1, at room temperature. Fractions containing BACE were combined, sterile filtered (0.22 μm) and stored at 4° C.
BACE was prepared for isothermal titrating calorimetry by extensive dialysis against fresh buffer at 4° C. using 12,000-14,000 […] MWCO dialysis membrane (UltraPURE, GIBCO BRL). […] Following 2 buffer changes, the protein was removed from the membrane and centrifuged (5 min×4000 g, 4° C.) to remove particulates. The protein was stored at 4° C. until needed for the calorimetry experiments. The protein concentration was determined by 10-fold dilution into the same buffer, and measuring the UV absorbance at 280 nm in a 1.00 cm pathlength cell (calculated value=1.22 AU=1.00 mg/mL protein, based on mean glycosylated molecular weight=53.5 kDa, and given amino acid composition). Final concentrations used in isothermal titrating calorimetry were typically 5.0 μM, containing a final concentration of 0.5% v/v DMSO.
Peptides were dissolved in the buffer dialysate from protein dialysis, and equal volumes of DMSO were added to each (0.5% v/v DMSO). The pH values of the solutions were adjusted as necessary to equal that of the buffer dialysate and protein sample within 0.01 pH units.

BACE [2] = molecular target: T1, BACE; test: Competitive binding assay, displacement of labeled EBP from BACE, fluorescence anisotropy; design: The cDNA for the catalytic domain of human BACE (residues 1-460) was PCR-amplified; human IgG1 heavy chain (C, cleaved yes); thrombin cleavage site (C); made in house; host or cells: CHO DG44 cells (stably transfected, secreted); conditions: displacement of Molecule X, read-out: binding constant (Kd) of unlabeled peptide by competition
Experimental: The competitive binding assay was carried out at pH 7.1 (PBS buffer) or pH 4.5 (50 mM acetate buffer). The fluorescence anisotropy was measured at 25° C. in an AVIV fluorometer. The excitation and emission wavelengths were set to 495 and 519 nm, respectively. The excitation and emission slit widths were 4 and 10 nm, respectively.
The initial anisotropy value was measured. A concentrated unlabeled peptide or compound stock was titrated into the above solution of EBP and BACE. The final concentration of unlabeled peptide or compound ranges from 20 to 20000 nM. After each addition, the solution was mixed for 10 times with a pipettor. The fluorescence anisotropy was averaged over a 5 minute period.
The change in anisotropy was converted to fractional occupancy based on the r0 and rb obtained from the binding assay. The fractional occupancy was then plotted against the concentration of the competing peptide or compound. (see, for example, FIG. 6) The Kd of the competing ligand was calculated from curve fitting using the program […]™ (Synergy Software, Reading, Pa.). The equation used to fit the competition data is identical to equation 4 in Lai et al., (2000) Arch. Biochem. Biophys. 381:278-284.
The truncated unlabeled peptides were screened at a single concentration of 10 μM at pH 4.5. The anisotropy values detected with Molecule X in the absence of inhibitor, i.e., truncated unlabeled peptide (ra) and in the presence of the inhibitor (rb) and the labeled peptide alone (r0) were used to calculate the percent of inhibition: 100 (ra-rb)/(ra-r0). The percent of inhibition was compared among the truncated peptides.

[3] = pH 5.3, 37° C., sample cell: CHO BACE
[4] = pH 5.3, 37° C., sample cell: CHO BACE: OM99-2 (10-fold excess added first)

T1 sequence (P56817 46-460 limits assumed): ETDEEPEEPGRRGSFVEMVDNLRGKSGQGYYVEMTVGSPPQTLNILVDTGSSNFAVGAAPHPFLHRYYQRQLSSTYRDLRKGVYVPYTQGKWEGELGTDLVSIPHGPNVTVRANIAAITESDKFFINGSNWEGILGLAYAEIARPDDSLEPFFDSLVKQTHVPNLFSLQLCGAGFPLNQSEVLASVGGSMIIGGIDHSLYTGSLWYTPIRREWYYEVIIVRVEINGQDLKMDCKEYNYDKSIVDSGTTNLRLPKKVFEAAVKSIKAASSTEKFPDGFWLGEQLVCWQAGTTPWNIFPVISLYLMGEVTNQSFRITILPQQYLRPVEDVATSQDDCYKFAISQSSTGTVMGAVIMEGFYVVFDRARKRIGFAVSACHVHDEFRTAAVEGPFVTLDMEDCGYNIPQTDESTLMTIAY

Q: Which results are given for Ac-NLTTYPYFIPLP-OH [BMS-561871]?
A: KA (BACE [1]; 25° C., Dulbecco's PBS, pH 7.1): 1.65e+07 M⁻¹; Kd (BACE [1]; 25° C., Dulbecco's PBS, pH 7.1): 61 nM; n (binding stoichiometry) (BACE [1]; 25° C., Dulbecco's PBS, pH 7.1): 1.03; ΔH (BACE [1]; 25° C., Dulbecco's PBS, pH 7.1): -12.9 kcal/mol; Kd (BACE [1]; [3]): 380 nM; T(dS) (BACE [1]; [3]): -6.8 kcal/mol; ΔG (BACE [1]; [3]): -9.1 kcal/mol; ΔH (BACE [1]; [3]): -15.9 kcal/mol; Kd (BACE [1]; [4]): 280 nM; T(dS) (BACE [1]; [4]): -5.7 kcal/mol; ΔG (BACE [1]; [4]): -9.3 kcal/mol; ΔH (BACE [1]; [4]): -15.0 kcal/mol; Kd (BACE [2]; pH 4.5): 1070 nM; Kd (BACE [2]; pH 7.1): 84 nM
